The term melting point denotes the temperature, or range, at which the solid turns liquid. Take `OCC1OC(n2cnc3c(NCC(c4ccccc4)c4ccc(F)cc4)nc(Cl)nc32)C(O)C1O` (stereo not drawn): the melting point fell in the range of 120 to 123 °C.

Consider `CC(C)c1nc2c(c(-c3ccc(F)cc3)c1CO)CCC2(C)C`, for which the melting point was in the range of 141 to 143 °C. Regarding `C=C(N=[N+]=[N-])c1cn(COCCO)c(=O)[nH]c1=O`, the melting point lay within 141 to 142 °C. Next, `CC(Oc1ccc(COc2ccc(Cl)cc2)cc1)C(=O)OCCOc1cc(Cl)c(Cl)cc1Cl` (stereo not drawn): 83 °C; `COc1ccc(C(=O)Nc2ccc(F)cc2)cc1NS(=O)(=O)c1cccc([N+](=O)[O-])c1`: 221 to 240 °C; `CCOC(=O)C(=O)c1oc(=O)[nH]c1-c1ccc(Cl)cc1`: 152 to 153 °C.

`CC1(C)CCC(C)(C)c2cc(C(=O)NNC(=O)c3ccc(C#N)cc3)ccc21`: the melting point was 274 to 277 °C. Next, `CCCn1c(=O)c2c(NC)n[nH]c2n(Cc2ccc(Br)cc2)c1=O`: 308 to 310 °C; `CSc1nnc(-c2snnc2C)o1`: 65 °C. Next, `CCOC(=O)CCCn1cc(C(=O)c2ccc(OCc3ccc(C)cc3)c(O)c2)c2ccccc21`: 125 to 127 °C; `CC(C)(C)c1cc(C#N)c(O)cn1`: 185 to 195 °C.

Consider `CCNC(=O)ON(C(C)=O)C(=O)NCC`, for which the melting point was in the range of 84 to 86 °C. Next, `ClCCCOc1ccc(SCCCCl)cc1`: 112 °C. For `CCCCNC(=N)c1ccc2[nH]c(=O)[nH]c2c1` the value was 168 °C; for `CCCCNC(=O)CNC(=O)CN1CCCC1=O`, 105 to 106 °C; for `Oc1c(Br)cc(-c2c3ccccc3c(Cl)c3sc4ccccc4c23)cc1Br`, 222 to 223 °C. `COc1cc(C(=O)NC=NC(=O)ON(c2ccc(C)c(NC(=O)c3ccc(OCc4ccccc4)cc3)c2)C(C)(C)C)cc(OC)c1OC` registered a melting point of 94 °C. Next, `CC(O)c1cccc2c1OCO2` (stereo not drawn): 45 to 46 °C; `COc1nccnc1OCC(O)CN1CCC(N2CCN(c3ccccc3)C2=O)CC1` (stereo not drawn): 128 to 129 °C; `Cc1c(I)c(=O)n(C)c(=O)n1C`: 155 to 157 °C. Next, `COc1cc(N)c(Cl)cc1C(=O)N[C@H]1CCN(CCCCNc2ncccn2)C[C@H]1OC` (relative stereo): 115 °C. `CCCN1C(=O)N2CC(Cc3ccccc3)N=C2c2[nH]c(C(C)OCC)nc21` (stereo not drawn) showed a melting point of 165 to 170 °C.

In turn, `COc1cc(C)nc(NC(=O)NS(=O)(=O)c2ccc(N=[N+]=[N-])cc2)n1` came in with a melting point of 192 °C. `CC(O)CSc1cc(C(C)(C)C)c(O)c(C(C)(C)C)c1` (stereo not drawn) showed a melting point of 82 °C. Take `CC(C)CCSc1cc(C(=O)O)cc(N)c1-c1ccccc1`: the melting point was in the range of 124 to 126 °C. Consider `CC=C(Oc1nc(OC)cc(OC)n1)C(=O)OC`, for which the melting point turned out to be 71 °C.

With `CCOc1ccc(-c2nc(-c3ccc(N4CCOCC4)c([N+](=O)[O-])c3)cs2)cc1OCC`, the melting point fell in the range of 119 to 120 °C. For the molecule `O=c1c2ccccc2ccn2ccnc12`, the melting point is 219 °C. For `O=C1Nc2cccc(-c3cccc4c3oc3ccccc34)c2C12COc1cc3c(cc12)OCO3` (stereo not drawn) the value was more than 230 °C.

The molecule `COC(=O)c1nc(CN2CCOCC2)n(-c2ccc(Cl)cc2C(=O)c2ccccc2)n1` gave a melting point of 165 to 170 °C.

`CC(C)(C)OC(=O)C(C1NC(C(=O)OCc2ccccc2)C2(CCN(c3ccccc3)CC2)S1)N1C(=O)c2ccccc2C1=O` (stereo not drawn) yielded a melting point of 184 to 185 °C. `CC1=C(C=O)C(C)(C)c2c(C)c(C)c(C)c(C)c21` gave a melting point of 176 °C. Next, `COc1ccc(C(=N)N)cc1C`: 151 to 153 °C; `Nc1nc(-c2cc(Cl)ccc2Cl)nc(N2CCN(CCO)CC2)n1`: 185 to 187 °C. For `CN1CCN2CCCOC2(c2ccccc2)c2cc(Cl)ccc21` (stereo not drawn) the value was 142 to 144 °C; for `O=[N+]([O-])c1ccc(F)c(I)c1F`, 46.1 to 47.5 °C. In turn, `CCCCC(CC)CNCCOc1ccc2ccccc2c1` (stereo not drawn) gave a melting point of 92 °C. For the molecule `COc1c(NCc2cccc(C)c2)cc2oc(=O)[nH]c2c1F`, the melting point was 160 to 161 °C.

In the case of `Cc1ccc2c(c1)C1CN(Cc3ccccc3)CCC1N2` (stereo not drawn), the melting point was 179 to 182 °C. For `CCCCSc1ccc2c3c(cccc13)C(=O)N2` the value was 126 to 129 °C; for `CS(=O)c1cc2n(c1C(=O)c1ccc(Br)cc1)CCC2C(=O)O` (stereo not drawn), 226 to 227 °C. `COC(=O)c1ccc(N2C(=O)CCC2(CBr)COC(=O)c2ccccc2)c([N+](=O)[O-])c1` (stereo not drawn) showed a melting point of 183 to 184 °C. Next, `CCOC(=O)C1CC(C)CCN1C(=O)c1ccc(Cl)c(C2(C)C(=O)N(Cc3ccc(OC)cc3OC)c3ccc(Cl)cc32)c1` (stereo not drawn): 106 °C; `Brc1cn2ccccc2n1`: 83 to 85 °C. For `CCNC(=O)c1cccc(NC(=O)c2nnn(Cc3ccc(Cl)c(Cl)c3)c2C)c1` the value was 192 °C; for `CCOC(=O)c1sc(NC(=O)c2cc(C(F)(F)F)cc(C(F)(F)F)c2)nc1C(F)(F)C(F)(F)F`, 154 to 155 °C; for `Cc1cc(C)c(NC(=O)CC23CC4CC(CC(C4)C2)C3)cc1C`, 158 °C. `COc1cc(C)c(C=CC(C)=CC=CC(C)=CC(=O)NC(C)C)c(C)c1C` returned a melting point of 200 °C. Next, `COc1cc(OC)nc(C(=O)c2nccc(-c3ccccc3)c2C(=O)OCc2ccccc2)n1`: 124 to 126 °C. Take `Cc1ccc2c(n1)Nc1ccccc1N(C)C2=O`: the melting point is 192 to 194 °C. `Cc1ccc2c(c1)CC(=O)c1cc(C(C)C(=O)O)ccc1S2` (stereo not drawn) showed a melting point of 157 to 159 °C. The molecule `COc1cc(F)cc(-c2nn(Cc3oc4ccccc4c(=O)c3-c3cccc(F)c3)c3ncnc(N)c23)c1` showed a melting point of 115 to 117 °C. Turning to `CCOC(=O)CCc1c(C)c2c(O)cc(C(C)CCCc3ccccc3)cc2oc1=O` (stereo not drawn), the melting point fell in the range of 58 to 70 °C.

`COc1ncccc1Oc1cc(-n2c(=O)cc(C(F)(F)F)n(C)c2=O)c(F)cc1Cl` came in with a melting point of 180 °C.

Turning to `OC(Cn1cncn1)(c1ccc(Cl)cc1)C1(n2cnc(Cl)n2)CC1` (stereo not drawn), the melting point came to 156 °C.

On to `O=[N+]([O-])c1ccc(NCc2ccccc2)c([N+](=O)[O-])c1`, for which the melting point is 106 °C. `CC(C)(C)OC(=O)N1CCN2C(=O)OC(c3ccccc3)C2C1` (stereo not drawn): the melting point is 133 to 135 °C.

As to `CC(C)(C)CC(C)(C)c1cc(-c2cc(C(C)(C)CC(C)(C)C)cc(-n3nc4ccccc4n3)c2O)c(O)c(-n2nc3ccccc3n2)c1`, the melting point was 209 to 211 °C.

Turning to `CCCCCCCCCCCCCCCCOCC(O)COC(c1ccccc1)(c1ccccc1)c1ccccc1` (stereo not drawn), the melting point is 49 °C. Molecule `O=C(NN1CCN(CCc2c[nH]c3ccccc23)CC1)c1ccc(O)cc1` had a melting point of 190 to 192 °C. As to `COc1cc(Nc2c(C#N)cnc3ccc(-c4csc(CN5CCOCC5)c4)cc23)c(Cl)cc1Cl`, the melting point was 145 to 147 °C. Next, `CCOC(=O)C1=C(C)NC(CC)=C(C(=O)OCC)C1c1cc([N+](=O)[O-])ccc1OCCCCCl` (stereo not drawn): 147 to 149 °C. Consider `Cc1cc(OC(F)(F)F)ccc1O`, for which the melting point was 72 °C. For `CS(=O)(=O)c1ccc(C(=O)c2cnoc2C2CC2)c(Cl)c1-c1nccs1`, the melting point fell in the range of 153 to 155 °C. Regarding `CC(=O)NCCC1CCc2ccc3nc(C)oc3c21` (stereo not drawn), the melting point was 93 to 95 °C. In the case of `CCOc1c(C)c(C)c2c(c1C)CCC(C)(COc1ccc(N)cc1)O2` (stereo not drawn), the melting point lay within 121 to 123 °C. Next, `C=CC(=O)NC(=O)NCCS(=O)C=C` (stereo not drawn): 109 to 110 °C.

Consider `CCOC(=O)CC(=O)c1cc(C#N)ccc1F`, for which the melting point fell in the range of 55 to 60 °C.

`CSc1c(C)c(-c2ccc(Cl)cc2Cl)nn1C` returned a melting point of 65 to 66 °C. Next, `CCSCCCNc1c(S(=O)(=O)C(F)(F)F)c(C#N)nn1-c1c(Cl)cc(C(F)(F)F)cc1Cl`: 80 °C. Molecule `C=CC(=O)OCCOC(=O)Nc1ccccc1` returned a melting point of 66 to 68 °C.

Take `CCCCN(Cc1ccc(-c2ccccc2-c2nnn[nH]2)cc1)c1ncc(C(=O)O)s1`: the melting point lay in the range of 183 to 184 °C. The molecule `CC(=O)NC(C)Cc1cc(C)c(C)cc1CC(=O)O` (stereo not drawn) yielded a melting point of 67 to 69 °C.

For `CCCc1nc2c(N)nc3ccccc3c2n1CCCCCC(C)=O`, the melting point was in the range of 161 to 163 °C.

The molecule `CC(=O)NC[C@H]1CN(c2ccc(N3CCN(c4ccc(C=O)o4)CC3)c(F)c2)C(=O)O1` had a melting point of 176 °C.

Molecule `CCOC(=O)Cc1ccccc1N(C(=O)CNC(=O)Nc1cccc(C)c1)c1ccccc1` returned a melting point of 120 °C.

In turn, `COc1cc(OC)c2c(=O)[nH]c(-c3ccc(Cc4nnn[nH]4)cc3)nc2c1` showed a melting point of 295 to 296 °C.

`NC1=NC(c2ccc(OC(F)(F)F)cc2)(c2cccc(-c3cncc(F)c3)c2)C2=NCCON12` (stereo not drawn) had a melting point of 120 to 135 °C. In the case of `O=C(O)c1ccc(OCC(O)c2cc3ccccc3o2)cc1` (stereo not drawn), the melting point fell in the range of 153 to 155 °C. For `c1cc(OCCCNCC2COc3cc4c(cc3O2)OCO4)c2cccnc2c1` (stereo not drawn) the value was 140 to 145 °C. Molecule `Oc1cccc(C=C2c3ccc(Cl)cc3CCc3cccnc32)c1` yielded a melting point of 221 °C. For `COc1cc(C(=O)N(C(C)C)C2CCCCC2)ccc1Cn1c(C)nc2cccnc21` the value was 210 to 212 °C; for `CC(=O)OC1CCC2C3CCc4cc(O)c(C=O)cc4C3CCC12C` (stereo not drawn), 184 °C; for `O=S1c2ccccc2N(CCCCl)c2ccccc21`, 171 to 173 °C. Take `CCCC(=O)c1c[nH]c2c(OC)cc(OC(=O)c3ccccc3)cc2c1=O`: the melting point lay within 102 to 104 °C. With `CCCc1c(OCCCCCCc2ccccc2CCC(=O)O)ccc2c1OCCC2=O`, the melting point fell in the range of 98 to 99 °C. Next, `CSc1cnc2cc(-c3cccc(Cl)c3)sc2c1O`: more than 300 °C; `COC(=O)c1ccccc1Nc1cc(C(C)(C)C)c(O)c(C(C)(C)C)c1`: 155 to 158 °C.

The values are drawn from a melting point compilation (Tetko et al.; mined from patent text by program, amines drawn as free bases though some values may be those of a salt).
